Reference: US20260034119A1, “5-METHOXY-N,N-[…][…], THEIR […], AND METHODS FOR TREATMENT OF NEUROLOGICAL, […], AND SUBSTANCE USE DISORDERS” (priority 2023, published 2026)
Like-named read-outs stand apart in the source and are kept apart here.

What was measured:
[1] = In vivo pharmacokinetics in mice (plasma and brain, subcutaneous); parameters: species or system mouse; conditions: for Kp / Cmax: male, C57BL/6, mouse, sc, 1 mg/kg; for Kp: brain and plasma
Description: Test System: Healthy male C57BL/6 mice (8-12 weeks old) weighing between 20 to 35 g were procured from Global (India). Three mice were housed in each cage. Temperature and humidity were maintained at 22±3° C. and 30-70%, respectively and illumination was controlled to give a sequence of 12 hr light and 12 hr dark cycle. Temperature and humidity were recorded by auto-controlled data logger system. All animals were provided laboratory rodent diet (Envigo Research Private Ltd, Hyderabad, India). Reverse osmosis water treated with UV light was provided ad libitum.
Study Design: Total twenty-seven male mice were used in this study with 3 mice/time point design. Animals were administered subcutaneously […] with solution formulation of compound at the requited dose.
Formulation Preparation: Accurately weighed of the desired compound was taken in a labeled bottle. To this the appropriate amount of normal saline was added, vortexed and followed by addition of 2 mol. equiv. of glacial acetic acid. The above formulation was again vortexed and sonicated for about 1 h with intermittent vortexing to obtain clear solution. The final dose formulation was filtered through 0.45 micron filter. No adverse clinical signs in any animals during study period.
Sample Collection: Blood samples (approximately 60 μL) were collected under light isoflurane anesthesia (Surgivet®) from retro orbital plexus from a set of three mice at 0.083, 0.25, 0.5, 1, 2, 4, 8, and 12 hr. Immediately after blood collection, plasma was harvested by centrifugation at 4000 rpm, 10 min at […] and samples were stored at −70±10° C. until bioanalysis. Following blood collection, immediately animals were sacrificed followed by abdominal vena-cava was cut open and whole body was perfused from heart using 10 mL of normal saline. Brain samples were collected from set of three mice at 0.083, 0.25, 0.5, 1, 2, 4, 8, and 12 hr. After isolation, brain samples were rinsed three times in ice cold normal saline (for 5-10 seconds/rinse using ˜5-10 mL normal saline in disposable petri dish for each rinse) and dried on blotting paper. Brain samples were homogenized using ice-cold phosphate buffer saline (pH-7.4). Total homogenate volume was three times the tissue weight. All homogenates were stored below −70±10° C. until bioanalysis.
Concentrations of the compound in mouse plasma and brain samples were determined by fit for purpose LC-MS/MS method. The sample processing and extraction procedure, chromatographic and mass spectrometric conditions as follows:
Non-Compartmental-Analysis tool of Phoenix WinNonlin® Version 8.0 (Certara, Princeton, NJ, USA) was used to assess the pharmacokinetic parameters. Peak plasma concentration (Cmax) and time for the peak plasma concentration (Tmax) were the observed values. The areas under the concentration time curve (AUClast and AUCinf) were calculated by linear trapezoidal rule. The terminal elimination rate constant, ke was determined by regression analysis of the linear terminal portion of the log plasma concentration-time curve. Tissue-Kps were calculated using Microsoft Excel® (Microsoft Corporation, […], WA, USA).

5-HT2A = 5-HT2A (Homo sapiens, UniProt P28223)
Chain of 5-HT2A (P28223 whole entry): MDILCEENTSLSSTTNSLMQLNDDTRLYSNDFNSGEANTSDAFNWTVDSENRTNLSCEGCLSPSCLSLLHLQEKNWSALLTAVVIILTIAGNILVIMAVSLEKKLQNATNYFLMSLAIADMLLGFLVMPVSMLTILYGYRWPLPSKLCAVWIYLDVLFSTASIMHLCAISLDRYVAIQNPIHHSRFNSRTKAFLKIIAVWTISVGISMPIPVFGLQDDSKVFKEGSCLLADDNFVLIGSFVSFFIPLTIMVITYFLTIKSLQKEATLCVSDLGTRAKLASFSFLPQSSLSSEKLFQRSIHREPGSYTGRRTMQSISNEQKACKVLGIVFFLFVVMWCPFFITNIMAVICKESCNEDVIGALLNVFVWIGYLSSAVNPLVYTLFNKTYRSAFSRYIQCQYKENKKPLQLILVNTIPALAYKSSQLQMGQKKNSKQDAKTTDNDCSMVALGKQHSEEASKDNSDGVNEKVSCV

C57BL/6J mice = experiment: Sucrose preference test after chronic social defeat stress; type: in vivo, mouse; conditions: stressed mice
From the text: The sucrose preference test is a volitional two-bottle choice procedure in which mice are given the choice between consuming water and a 1% sucrose solution. This paradigm has been used extensively to assess the effects of stress-induced anhedonia. On day 10 of CSDS mice were individually housed and habituated to two bottles containing just water. Twenty-four hours later, following the SI test, one bottle was replaced with a 1% sucrose solution (w/v) made with water from the animal vivarium. Mice had ad libitum overnight access to both bottles and preference for sucrose over water was calculated as follows: [sucrose/(sucrose+water)*100]. Data were averaged from two independent experiments. A total of 27 mice were administered vehicle (9 control, 18 stress), 27 received 4-F, 5-MeO-PyrT (9 control, 18 stress), 15 received WAY-100635 (5 control, 10 stress), and 15 received 4-F, 5-MeO-PyrT+WAY-100635 (5 control, 10 stress). More animals were used for the stressed groups due to the inherent resilience of mice to social defeat stress (Krishnan et al. 2007). Analysis of different treatment conditions of control and stressed animals was done in GraphPad Prism using two-way ANOVA.

5-HT1A N386V = target: T1, 5-HT1A N386V (Homo sapiens, UniProt P08908, N386V); experiment: Gi1 BRET at mutant 5-HT1A N386V; type: cell-based; conditions: Gi1 BRET, 5-HT1A N386V^7.39
T1 construct: expressed in transfected cells; host or cells: HEK293-T
T1 sequence (P08908 1-422 N386V): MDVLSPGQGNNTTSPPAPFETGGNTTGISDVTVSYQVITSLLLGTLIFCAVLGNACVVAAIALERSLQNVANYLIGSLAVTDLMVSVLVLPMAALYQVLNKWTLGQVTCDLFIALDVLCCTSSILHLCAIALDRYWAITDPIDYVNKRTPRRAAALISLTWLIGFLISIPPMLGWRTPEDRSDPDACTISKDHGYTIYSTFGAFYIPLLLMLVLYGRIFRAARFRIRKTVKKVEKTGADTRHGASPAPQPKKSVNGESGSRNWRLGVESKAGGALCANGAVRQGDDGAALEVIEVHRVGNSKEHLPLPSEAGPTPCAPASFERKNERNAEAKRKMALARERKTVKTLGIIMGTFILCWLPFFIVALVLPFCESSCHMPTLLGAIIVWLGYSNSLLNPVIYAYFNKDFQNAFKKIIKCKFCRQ

COc1ccc2[nH]cc(CCN3CCCC3)c2c1F [4-F, 5-MeO-PyrT, 4-Fluoro, 5-methoxypyrrolidinyl-tryptamine]
Kp ([1]; mouse, 1 mg/kg s.c., read-out: total brain:plasma ratio): 3.3 | Kp ([1]; mouse, 1 mg/kg s.c., read-out: unbound brain:plasma ratio): 0.91 | Cmax ([1]; brain, mouse brain, 1 mg/kg SC, read-out: Total Cmax (ng/mL), Brain): 143 ng/mL | Cmax ([1]; brain, mouse, 1 mg/kg subcutaneous, read-out: Cmax/brain): 143 ng/mL | Cmax ([1]; plasma, mouse plasma, 1 mg/kg SC, read-out: Total Cmax (ng/mL), Plasma): 44 ng/mL | Total AUClast ((hr*ng)/mL), Brain ([1]; mouse brain, 1 mg/kg SC): 128.34 ng·h/mL | time at which brain penetration peaks ([1]; mouse brain, 1 mg/kg s.c.): 30 min | Total AUClast ((hr*ng)/mL), Plasma ([1]; mouse plasma, 1 mg/kg SC): 26.40 ng·h/mL | compound largely cleared within ([1]; mouse, 1 mg/kg s.c.): ≤ 2 h | estimated free drug concentration in the brain at Tmax ([1]; mouse, 1 mg/kg s.c.): ~100 nM | EC50 (5-HT2A; Gq BRET, 5-HT2A WT): 300 nM | pEC50 (5-HT2A; Gq BRET, 5-HT2A WT): (6.52, | EC50 (5-HT2A; read-out: Gq BRET EC50): 300 nM | effect on sucrose preference under WAY-100635 co-administration (C57BL/6J mice): reversed the effects | sucrose preference (C57BL/6J mice; relative to vehicle-treated animals): significantly increased sucrose preference | pEC50 (5-HT1A N386V): (8.52, | EC50 (5-HT1A N386V; read-out: EC50): 3 nM
